Experimental data from US12370158B2, “Analogs of CYP-eicosanoids for use in treating or preventing a disorder associated with neovascularization and/or inflammation” (OMEICOS Therapeutics GmbH, priority 2016, dated 2025).

Key:
[1] = Ocular pharmacokinetics of Comp-02 after topical administration (instillation) in rabbit; type: in vivo, pigmented HY79b rabbits; conditions: checked by ophthalmoscopy
[2] = Ocular pharmacokinetics of Comp-02 after intravitreal injection in rabbit; type: in vivo, pigmented HY79b rabbits; conditions: ocular examination with a slit lamp
[3] = system: double transgenic rats (dTGR), renal tissue; test: Renal inflammation (ED1 macrophage infiltration) in dTGR rat model of severe hypertension and end-organ damage; type: in vivo; conditions: 1.33 mg/kg twice daily by gavage for 21 days, compared to vehicle treated dTGRs
Source text: (§1) The aim of this study was to assess and compare the effect of continuous oral treatment of a metabolically robust analog of 17,18-EEQ (Comp-02) or vehicle (isotonic salt solution) on physiological parameters, clinical chemistry and end-organ damage in male double transgenic rats (dTGR). Non-treated Sprague-Dawley rats (SD) of same genetic background were used as control. Double transgenic rats, overexpressing the human renin and angiotensinogen genes, develop severe hypertension and are a model for Ang-II induced end-organ damage with cardiac hypertrophy and kidney failure. Moreover, the dTGR model features severe […], cardiac hypertrophy and nephrosclerosis with marked fibrosis and inflammation.
(§2) Before start of the experiment the animals were randomly assigned to either compound or vehicle treatment. […] Comp-02 was prepared in 61.6 ppm Na2CO3 and 0.9% NaCl ready to use solution for application, while dTGR animals were dosed twice daily with 0.9% NaCl ready to use solution for vehicle control. […] Samples were analysed using a Zeiss Axioplan-2 imaging microscope with the digital image-processing program AxioVision 4.8. […] Data were expressed as sum of 20 randomly chosen view fields, non-overlapping fields per section. […]

[4] = system: TNF alpha release from the HL-1 cells; test: TNF alpha release from HL-1 cardiomyocytes; type: cell-based, mouse; conditions: 24 h
Description: (§3) A cardiomyocyte cell line was used (mouse derived immortalized cardiomyocytes, HL-1 cells). Cells were either treated with vehicle (0.01% ethanol) or different concentrations of test compound (Comp-02: cE=10 nM, 100 nM or 1 μM). Simultaneously, the cells were challenged with 1 μg/mL lipopolysaccharide (LPS). After 24 h of incubation, the cells were processed to measure release of the pro-inflammatory cytokine TNF alpha.
as §3, with “In order to investigate the anti-inflammatory potential of compounds being part of the invention in vitro, a cardiomyocyte” for “A cardiomyocyte”, “measure viability (FIG. 2) and” for “measure”, “TNF alpha (FIG. 3).” for “TNF alpha.”

[5] = system: double transgenic rats (dTGR), cardiac tissue; test: Cardiac inflammation (ED1 macrophage infiltration) in dTGR rat model of severe hypertension and end-organ damage; type: in vivo; conditions: 1.33 mg/kg twice daily by gavage for 21 days, compared to vehicle treated dTGRs
Source text: as §1, §2

[6] = Ocular pharmacokinetics of Comp-02 after topical administration (instillation) in rabbit; type: in vivo, pigmented HY79b rabbits; conditions: male, pigmented HY79b, topical or ocular, 50 μl of 1 mg/mL in both eyes; for Cmax: single instillation 50 μl (1 mg/mL) in both eyes; for Tmax / half-life / AUC: topical; for half-life: calculated from the Tmax value; for AUC: read-out: AUC1-48 hours
Description: (§4) Study design: To gain insight into the distribution behaviour of synthetic 17,18-EEQ-agonists, ocular pharmacokinetic studies were performed in pigmented HY79b rabbits. Briefly, 15 male rabbits per administration route were anesthetized at the time-points for sampling indicated in tables 2-4 by an intramuscular injection of a mixed solution of xylazine and ketamine. Blood collection was performed by cardiac puncture in K3EDTA tubes and centrifuged at 2000 g, 10 min at 4° C. Approximately 3 mL of plasma were sampled, put in plastic tubes, snap frozen in liquid nitrogen and stored at −80° C. until assay. Then animals were euthanized by intracardiac injection of overdosed pentobarbital. This method is one of the recommended methods for euthanasia by the European authorities (French decree No. 2013-118, dated Feb. 1, 2013 publishing the European directive 2010/63/UE. J.Offic. Rp. Fr. 2013; Text 24 out of 130). Immediately after euthanasia, samples from both eyes were quickly and carefully taken, put in plastic tubes, weighed, snap frozen in liquid nitrogen and stored at −80° C. until assay. Content of Comp-02 was determined in ocular samples and plasma following an established RRLCMS/MS method. The results are presented in Tables 5-7 and are expressed as mean values for the different pharmacokinetic parameters. Chromatogram integration was done using MassHunter software. Apparent Cmax and Tmax, T½, AUC1-48 h were calculated by Excel® software. Concentrations were expressed in ng/g or ng/mL of tissue/eye compartment.

[7] = Ocular pharmacokinetics of Comp-02 after intravitreal injection in rabbit; type: in vivo, pigmented HY79b rabbits; conditions: for AUC / Tmax / half-life / Cmax: male, pigmented HY79b; for AUC / Tmax / half-life: intravitreal; for AUC: read-out: AUC1-48 hours; for half-life: calculated from the Tmax value; for Cmax: topical or ocular, single vitreal injection of 50 μl (1 mg/mL) in both eyes
Description: as §4

HL-1 cells = test: Viability of LPS-challenged HL-1 cardiomyocytes; type: cell-based, mouse; conditions: 10 nM, 100 nM or 1 μM, 1 μg/mL LPS, 24 h
Description: as §3, with “viability.” for “release of the pro-inflammatory cytokine TNF alpha.”
as §3, with “In order to investigate the anti-inflammatory potential of compounds being part of the invention in vitro, a cardiomyocyte” for “A cardiomyocyte”, “measure viability (FIG. 2) and” for “measure”, “TNF alpha (FIG. 3).” for “TNF alpha.”

[8] = Ocular pharmacokinetics of Comp-02 after oral administration in rabbit; type: in vivo, pigmented HY79b rabbits; conditions: for Comp-02 content (below lower limit of detection): oral; for Cmax / Tmax / AUC / half-life: male, pigmented HY79b, rabbit; for Cmax: single oral 2 mg/kg (0.2 mg/mL); for Tmax / AUC / half-life: single oral 2 mg/kg; for AUC: read-out: AUC1-48 hours; for half-life: calculated from the Tmax value
Description: as §4

[9] = other: intravitreal injection, 50 μl of 1 mg/mL in both eyes, vitreous
[10] = other: intravitreal, 50 µg/eye, choroid
[11] = other: intravitreal, 50 µg/eye, plasma
[12] = other: intravitreal, 50 µg/eye, retina

Q: With `CNC(=O)C(=O)NCCCC/C=C\CCCCCCCOCC(=O)O` [Comp-02, 2-((13-(2-(methylamino)-2-oxoacetamido)tridec-8(Z)-en-1-yl)oxy)acetic acid] as the compound, how does the “Macroscopic tolerability of the Comp-02 formulation” value [1] read?
A: Its value is “very well tolerated”.

Q: What about the “Macroscopic tolerability of the Comp-02 formulation” value [2] of the same compound?
A: Its value is “very well tolerated”.

Q: What about the “Macrophage infiltration (ED1 positive cells) in renal tissue” value [3] of the same compound?
A: The value was “significant reduction”.

Q: And the “LPS-induced TNF alpha release” value ([4]; 10 nM, 100 nM or 1 μM, 1 μg/mL LPS)?
A: The value was “significantly and dose-dependently reduced”.

Q: And the “Influence on TNF alpha production, compound alone” value ([4]; Comp-02 alone (no LPS))?
A: The value was “did not have an influence”.

Q: What about the “Macrophage infiltration (ED1 positive cells) in cardiac tissue” value [5] of the same compound?
A: Its value is “significant reduction”.

Q: What about the Cmax ([6]; aqueous humor) of the same compound?
A: Its Cmax is 88 ng/mL.

Q: What about the Tmax ([6]; aqueous humor) of the same compound?
A: Its Tmax is 1 h.

Q: What about the half-life ([6]; aqueous humor) of the same compound?
A: The half-life was 1 h.

Q: And the AUC ([6]; aqueous humor)?
A: Its AUC is 324 ng·h/mL.

Q: And the Cmax ([6]; choroid)?
A: The Cmax was 79 ng/g.

Q: What about the Tmax ([6]; choroid) of the same compound?
A: The Tmax was 1 h.

Q: And the half-life ([6]; choroid)?
A: Its half-life is 0.7 h.

Q: What about the Cmax ([6]; plasma) of the same compound?
A: Its Cmax is 31 ng/mL.

Q: And the Tmax ([6]; plasma)?
A: Its Tmax is 0.5 h.

Q: What about the half-life ([6]; plasma) of the same compound?
A: The half-life was 5.4 h.

Q: And the AUC ([6]; plasma)?
A: Its AUC is 262 ng·h/mL.

Q: And the Cmax ([6]; retina)?
A: Its Cmax is 24 ng/g.

Q: And the Tmax ([6]; retina)?
A: The Tmax was 1 h.

Q: And the “Ocular exposure in the posterior eye, comparison of routes” value ([7]; intravitreal injection compared to oral and topical administration)?
A: Its value is “highest ocular exposures”.

Q: And the AUC ([7]; other: intravitreal injection, 50 μl of 1 mg/mL in both eyes, choroid)?
A: The AUC was 63300 ng·h/mL.

Q: And the AUC ([7]; other: intravitreal injection, 50 μl of 1 mg/mL in both eyes, plasma)?
A: Its AUC is 287 ng·h/mL.

Q: And the AUC ([7]; other: intravitreal injection, 50 μl of 1 mg/mL in both eyes, retina)?
A: The AUC was 79900 ng·h/mL.

Q: And the Tmax [7, 9]?
A: The Tmax was 1 h.

Q: What about the AUC [7, 9] of the same compound?
A: Its AUC is 55400 ng·h/mL.

Q: And the Tmax [7, 10]?
A: The Tmax was 1 h.

Q: And the half-life [7, 10]?
A: Its half-life is 2.4 h.

Q: And the Tmax [7, 11]?
A: Its Tmax is 2 h.

Q: And the half-life [7, 11]?
A: Its half-life is 4.2 h.

Q: What about the Tmax [7, 12] of the same compound?
A: Its Tmax is 1 h.

Q: And the half-life [7, 12]?
A: Its half-life is 2.6 h.

Q: What about the half-life ([7]; other: intravitreal, 50 µg/eye, vitreous) of the same compound?
A: The half-life was 4.6 h.

Q: What about the Cmax ([7]; 50 μl of 1 mg/mL in both eyes, choroid) of the same compound?
A: The Cmax was 15000 ng/g.

Q: And the Cmax ([7]; 50 μl of 1 mg/mL in both eyes, plasma)?
A: The Cmax was 19 ng/mL.

Q: What about the Cmax ([7]; 50 μl of 1 mg/mL in both eyes, retina) of the same compound?
A: Its Cmax is 10100 ng/g.

Q: And the Cmax ([7]; 50 μl of 1 mg/mL in both eyes, vitreous)?
A: Its Cmax is 6650 ng/mL.

Q: And the “Effect on LPS-induced reduction in cell viability (cytotoxic effect)” value (HL-1 cells)?
A: The value was “dose-dependently reversed”.

Q: What about the “Comp-02 content (below lower limit of detection)” value ([8]; aqueous humor samples, except for one out of 15 animals) of the same compound?
A: The value was less than 0.1 ng/10 μl injected.

Q: What about the Cmax ([8]; aqueous humor) of the same compound?
A: The Cmax was 8 ng/mL.

Q: What about the Tmax ([8]; aqueous humor) of the same compound?
A: The Tmax was 1 h.

Q: What about the AUC ([8]; aqueous humor) of the same compound?
A: Its AUC is 12 ng·h/mL.

Q: And the Cmax ([8]; choroid)?
A: The Cmax was 246 ng/g.

Q: And the Tmax ([8]; choroid)?
A: The Tmax was 1 h.

Q: And the half-life ([8]; choroid)?
A: The half-life was 9 h.

Q: And the AUC ([8]; choroid)?
A: Its AUC is 1390 ng·h/mL.

Q: And the Cmax ([8]; plasma)?
A: The Cmax was 1210 ng/mL.

Q: What about the Tmax ([8]; plasma) of the same compound?
A: The Tmax was 1 h.

Q: And the half-life ([8]; plasma)?
A: The half-life was 6 h.

Q: What about the AUC ([8]; plasma) of the same compound?
A: Its AUC is 6330 ng·h/mL.

Q: And the Cmax ([8]; retina)?
A: The Cmax was 15 ng/g.

Q: What about the Tmax ([8]; retina) of the same compound?
A: Its Tmax is 4 h.

Q: What about the “Comp-02 content (below lower limit of detection)” value ([8]; retina samples, except for two out of 15 animals) of the same compound?
A: Its value is less than 0.1 ng/10 μl injected.
